Here are results for seven molecules from patent US20260116845A1, “LIPIDS AND COMPOSITIONS THEREOF” (Kernal Biologics, Inc., priority 2023, published 2026).

Molecules are shown by their SMILES.

The test system of one experiment is AML12 Cell Line. As to the kind of experiment: Transfection of AML12 Cell Line with FLuc mRNA LNPs (ONE-Glo EX luciferase signal). Particulars: 200 ng Fluc mRNA-LNP, 24 hours; Table 4. The class given is cell-based. Summed up:
(§1)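 Firefly luciferase luminescence measured 24 h after transfection with 200 ng mRNA-LNP per well in Opti-MEM. Seeding: 5,000 cells/well for B16F10 and MC38.K, 20,000 for AML12. LNPs were pre-incubated 30 min with mouse serum; mRNA content determined by RiboGreen.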

The subject of a further experiment is B16F10 Cell Line. The experiment in a line: Transfection of B16F10 Cell Line with FLuc mRNA LNPs (ONE-Glo EX luciferase signal). In kind it is cell-based. Particulars: 200 ng Fluc mRNA-LNP, 24 hours; Table 4. Put shortly:
as §1

In the next experiment the test system is MC38.K Cell Line. The experiment in a line: Transfection of MC38.K Cell Line with FLuc mRNA LNPs (ONE-Glo EX luciferase signal). The class given is cell-based. Conditions: 200 ng Fluc mRNA-LNP, 24 hours; Table 4. Summed up:
as §1

A further experiment concerns Liver. The experiment in a line: Ex-vivo luminescence signal from liver after IV Fluc mRNA LNPs in CD1 mice (IVIS). Particulars: tail vein 1.0 mg/kg Day 0 and Day 2, imaging 18 hours after second dose, Table 4.

Take `CCCCCCCCC(CCCCCCCF)C(=O)OCCCCCCCN(CCO)CCCCCCCOC(=O)CCCCCCCC=C(C)C` (stereo not shown) [Compound 52, 7-((7-((2-(7-fluoroheptyl)decanoyl)oxy)heptyl)(2-hydroxyethyl)amino)heptyl 10-methylundec-9-enoate]: the “Total Luciferin Signal (RLU) In Vitro - AML12” value in the experiment on AML12 Cell Line came to 2.59E+05 RLU. Moreover, the “Total Luciferin Signal (RLU) In Vitro - B16F10” value in the experiment with B16F10 Cell Line is 2.53E+05 RLU. Besides, the “Total Luciferin Signal (RLU) In Vitro - MC38.K” value in the experiment with MC38.K Cell Line is 4.31E+05 RLU. In the experiment on Liver, the “Total Liver Tissue Luciferin Signal (Photons/s) Ex-vivo - CD1” value (“Total Liver Tissue Luciferin Signal” below) stood at 7.87E+09 Photons/s.
On to `CCCCCCCCC(CCCCCCCF)OC(=O)CCCCCCCN(CCO)CCCCCC(=O)OC(CCCCCCCC)CCCCCC(C)C` (stereo not shown) [Compound 55, 1-fluorohexadecan-8-yl 8-((2-hydroxyethyl)(6-((2-methylhexadecan-8-yl)oxy)-6-oxohexyl)amino)octanoate], for which, in the experiment with AML12 Cell Line, the “Total Luciferin Signal (RLU) In Vitro - AML12” value turned out to be 4.19E+05 RLU. Also, in the experiment with B16F10 Cell Line, the “Total Luciferin Signal (RLU) In Vitro - B16F10” value is 1.10E+06 RLU. Further, the “Total Luciferin Signal (RLU) In Vitro - MC38.K” value with MC38.K Cell Line was found to be 1.80E+06 RLU. Further, the “Total Liver Tissue Luciferin Signal” value in the experiment on Liver is recorded as 1.93E+10 Photons/s.
In the same order, the values of `CCCCCCCCCOC(=O)CCCCCCCN(CCCCCCCC(=O)OC(CCCCCCCC)CCCCCCCCF)CCN(C)C` (stereo not shown) [Compound 56, 1-fluoroheptadecan-9-yl 8-((2-(dimethylamino)ethyl)(8-(nonyloxy)-8-oxooctyl)amino)octanoate] are 6.63E+06 RLU, 1.54E+07 RLU, 2.52E+07 RLU and 1.77E+09 Photons/s.
In the same order, the values of `CCCCCCCCC(CCCCCCCCF)OC(=O)CCCCCCCN(CCO)CCCCCC(=O)OCCCCCCC(C)C` (stereo not shown) [Compound 57, 1-fluoroheptadecan-9-yl 8-((2-hydroxyethyl)(6-((7-methyloctyl)oxy)-6-oxohexyl)amino)octanoate] are 2.63E+06 RLU, 1.27E+06 RLU, 1.42E+07 RLU and 1.05E+10 Photons/s.
The matching figures for `CCCCCCCCC(CCCCCCCC)OC(=O)CCCCCCCN(CCO)CCCCCCC(C)C(=O)OCCCCCCCCC(C)C` (stereo not shown) [Compound 59, 9-methyldecyl 8-((8-(heptadecan-9-yloxy)-8-oxooctyl)(2-hydroxyethyl)amino)-2-methyloctanoate]: 8.24E+05 RLU, 6.17E+05 RLU, 8.40E+06 RLU and 5.55E+09 Photons/s.
`CCCCCCCCC(CCCCCCCCF)C(=O)OCCCCCCCN(CCO)CCCCCCCOC(=O)CCCCCCCCC(C)C` (stereo not shown) [Compound 60, 7-((7-((10-fluoro-2-octyldecanoyl)oxy)heptyl)(2-hydroxyethyl)amino)heptyl 10-methylundecanoate]: the “Total Luciferin Signal (RLU) In Vitro - AML12” value in the experiment on AML12 Cell Line is reported as 8.00E+05 RLU. Further, the “Total Luciferin Signal (RLU) In Vitro - B16F10” value in the experiment on B16F10 Cell Line came out at 3.17E+05 RLU. The “Total Luciferin Signal (RLU) In Vitro - MC38.K” value in the experiment with MC38.K Cell Line was determined as 5.21E+06 RLU. Moreover, the “Total Liver Tissue Luciferin Signal” value in the experiment with Liver was 3.00E+09 Photons/s.
The matching figures for `CCCCCCCCCOC(=O)C(C)CCCCCCN(CCO)CCCCCCCC(=O)OC(CCCCCCCC)CCCCCCCCF` (stereo not shown) [Compound 61, nonyl 8-((8-((1-fluoroheptadecan-9-yl)oxy)-8-oxooctyl)(2-hydroxyethyl)amino)-2-methyloctanoate]: 8.13E+05 RLU, 9.46E+05 RLU, 1.11E+07 RLU and 1.38E+10 Photons/s.
